Source: patent US20100068200A1, “Methods and Compositions for Inhibiting Atherosclerosis and Vascular Inflammation” (THE UNIVERSITY OF CONNECTICUT, priority 2008, published 2010)
Where a SMILES comes first, the peptide text is derived from it. The star is where a group is joined. Cbz = O=C(OCc1ccccc1)*

Columns and labels:
S1p2r−/− macrophage = assay: reversal of caspase-11 null phenotype of S1p2r−/− macrophage; format: cell-based, mouse; conditions: MG132 1-20 μM, chloroquine 10-100 μM, data not shown
caspase-11 = caspase-11 protein expression in elicited peritoneal macrophages (western blot); format: cell-based; conditions: mouse elicited peritoneal macrophages; oxLDL 50 μg/ml or TNFα 50 ng/ml, 8 hrs
Description: Isolation of Thioglycolate-Elicited Peritoneal Cells. Mice were injected i.p. with 2 ml of 3% thioglycolate. Four days later, the peritoneal fluid was collected, and cells monolayer was prepared by addition of 1 ml/well (2×10^6 macrophages) into 35 mm culture dishes. Macrophage adhesion was allowed to proceed for 4 h at 37° C. in a 5% CO2 atmosphere.
Immunoprecipitation experiments. Cell or spleen extracts were prepared with RIPA buffer (25 mM Tris-HCl pH 7.6, 150 mM NaCl, 1% NP-40, 1% sodium deoxycholate, 0.1% SDS). Caspase-1 was immunoprecipitated with polyclonal rabbit anti-caspase-1 antibody (Santa Cruz) crosslinked to protein A beads and Caspase-11 was immunoprecipitated with monoclonal rat anti-caspase-11 antibody, crosslinked to protein G beads. For western blot analysis, BMDM were treated with LPS (1 μg/ml, E. coli serotype 026:B6; Sigma). Aortas or cells were solubilized in RIPA buffer or 2×SDS-sample buffer (20 mM DTT, 6% SDS, 0.25 M Tris pH 6.8, 10% Glycerol, bromophenyl blue, protease inhibitors, 1 mM sodium orthovanadate and 1 mM NaF), sonicated, boiled and separated by SDS-PAGE gel electrophoresis. […] Cells were treated as indicated with 1 μg/ml LPS (Sigma) and 50 ng/ml TNFα (Sigma) Immunoreactive bands density was quantified with Image Pro Plus Analysis Software (Media Cybernetics).

Row | Molecule | reversal of caspase-11 null phenotype (S1p2r−/− macrophage) | caspase-11 protein expression after stimulus (caspase-11)
1 | CC(C)C[C@@H](C=O)NC(=O)[C@H](CC(C)C)NC(=O)[C@H](CC(C)C)NC(=O)OCc1ccccc1 [MG132] (Cbz-Leu-Leu-Leu-aldehyde) | could not reverse | 
2 | TNFα |  | upregulates
